Laboratory results from PMC11094793, “Discovery of LLC0424 as a Potent and Selective in Vivo NSD2 PROTAC Degrader” (Journal of Medicinal Chemistry, 2024).

Biological target: T1, NSD2 (Homo sapiens, UniProt O96028)
T1 sequence (O96028 1-1365): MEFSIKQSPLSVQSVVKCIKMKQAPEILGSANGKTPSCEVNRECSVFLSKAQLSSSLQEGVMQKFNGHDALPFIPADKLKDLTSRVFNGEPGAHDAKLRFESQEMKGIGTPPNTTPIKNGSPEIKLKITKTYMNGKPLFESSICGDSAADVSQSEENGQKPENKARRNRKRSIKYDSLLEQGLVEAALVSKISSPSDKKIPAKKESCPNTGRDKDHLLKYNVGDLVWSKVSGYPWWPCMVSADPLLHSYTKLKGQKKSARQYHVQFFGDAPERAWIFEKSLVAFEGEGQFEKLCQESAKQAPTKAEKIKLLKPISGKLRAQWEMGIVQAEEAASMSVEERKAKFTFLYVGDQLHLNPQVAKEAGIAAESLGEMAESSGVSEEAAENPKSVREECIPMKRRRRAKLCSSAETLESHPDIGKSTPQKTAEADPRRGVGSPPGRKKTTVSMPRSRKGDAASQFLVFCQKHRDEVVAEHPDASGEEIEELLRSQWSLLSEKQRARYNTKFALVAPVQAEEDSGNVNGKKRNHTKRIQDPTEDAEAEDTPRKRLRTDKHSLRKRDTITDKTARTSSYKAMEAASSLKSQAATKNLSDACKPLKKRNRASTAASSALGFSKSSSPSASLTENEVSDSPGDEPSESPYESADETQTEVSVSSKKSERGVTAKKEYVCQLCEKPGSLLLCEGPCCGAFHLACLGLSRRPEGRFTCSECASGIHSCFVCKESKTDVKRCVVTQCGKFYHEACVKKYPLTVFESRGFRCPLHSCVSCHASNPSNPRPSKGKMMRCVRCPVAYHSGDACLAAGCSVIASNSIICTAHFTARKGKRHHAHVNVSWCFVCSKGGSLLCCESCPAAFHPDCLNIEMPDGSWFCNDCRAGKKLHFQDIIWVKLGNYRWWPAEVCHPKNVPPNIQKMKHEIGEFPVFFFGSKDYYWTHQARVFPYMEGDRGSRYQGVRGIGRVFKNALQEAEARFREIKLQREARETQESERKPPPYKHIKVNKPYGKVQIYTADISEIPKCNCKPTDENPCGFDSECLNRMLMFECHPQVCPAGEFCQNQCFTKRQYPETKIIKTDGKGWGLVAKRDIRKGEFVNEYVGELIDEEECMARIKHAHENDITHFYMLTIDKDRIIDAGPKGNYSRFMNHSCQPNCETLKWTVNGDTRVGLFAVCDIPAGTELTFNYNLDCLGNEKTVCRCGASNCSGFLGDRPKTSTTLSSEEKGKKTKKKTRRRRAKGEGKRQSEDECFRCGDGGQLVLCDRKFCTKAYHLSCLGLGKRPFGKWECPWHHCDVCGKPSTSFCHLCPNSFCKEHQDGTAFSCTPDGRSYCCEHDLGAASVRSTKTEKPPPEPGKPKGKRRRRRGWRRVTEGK
Test: Pharmacodynamic assessment in 22RV1 xenograft model
Assay type: in vivo, mice
Set-up: from tissue; host or cells: 22RV1 subcutaneous xenograft tumours in CB17 SCID mice
Details: 5 consecutive days
Procedure: We finally performed pharmacodynamic assessment of LLC0424 in both the SEM and 22RV1 xenograft model. Based on the solubility of LLC0424 and the tolerance of the mice, we chose 60 mg/kg as the dosage for the pharmacodynamic study. LLC0424 was administrated by intravenous (iv) or intraperitoneal (ip) injection at a dose of 60 mg/kg for 5 consecutive days. The tumor tissues were harvested at day 5 and subjected to histology and Western blot analysis (Figure 7A, and SI, Figure S6A).
First, 6–8 weeks old male CB17 severe combined immunodeficiency (SCID) mice were procured from the University of Michigan breeding colony. Subcutaneous tumors were established at both sides of the dorsal flank of mice. Tumors were measured at least biweekly using digital calipers following the formula (π/6) (L × W2), where L is length and W is width of the tumor. At the end of the studies, mice were sacrificed and tumors extracted. For each tumor, a part is […] followed by embedding in paraffin to make tissue blocks. The blocks were sectioned at […] for immunohistochemistry analysis. Another part is made into tissue lysates for Western blotting analysis. The University of Michigan Institutional Animal Care and Use Committee (IACUC) approved all in vivo studies. […]

O=C1CCC(N2C(=O)c3ccc(N4CCC(NC(=O)c5ccc(NC(=O)c6ccc(CN(C(=O)c7ccc8c(c7)OCC(=O)N8)C7CC7)cc6)cc5)CC4)cc3C2=O)C(=O)N1 (centres unmarked) [compound 10l, N-Cyclopropyl-N-(4-((4-((1-(2-(2,6-dioxopiperidin-3-yl)-1,3-dioxoisoindolin-5-yl)piperidin-4-yl)carbamoyl)phenyl)carbamoyl)benzyl)-3-oxo-3,4-dihydro-2H-benzo[b][1,4]oxazine-7-carboxamide]
NSD2 level in tumor tissue (60 mg/kg iv or ip, versus vehicle): significantly downregulated | NSD2 degradation, iv versus ip administration (60 mg/kg): comparable level of NSD2 degradation
